Experimental data taken from paper PMC7156724, “Potent BRD4 inhibitor suppresses cancer cell-macrophage interaction” (Nature Communications, 2020).
Several values for one entry are separate records, joined by “and”; a condition that tells them apart may be missing. Equal values may be shown once.

Tests used:
[1] = system: HaCAT cells (immortalized human keratinocytes); assay: MTS assay of non-cancerous cells; type: cell-based; parameters: Cell viability (Sup Fig.4a) / Cell viability (Sup Fig.4b) / Cell viability (Sup Fig.4b, 72h): unit not given here; conditions: for Cell viability (Sup Fig.4b): 48h
Procedure: Supplementary Figure 4. […] (a-c) MTS
assays of HaCAT cells (immortalized human keratinocytes) treated with the indicated concentration of
NHWD-870 for 24h (a), 48h (b) or 72h (c). Data are presented as mean ± SEM of 5 independent experiments.
p values were calculated from two-tailed, unpaired t tests. Source data are provided as a Source Data file.
37℃, 5% CO2. […]

[2] = Metabolic stability assay, mouse liver microsomes; conditions: for Remaining in mouse liver microsomes (Sup Fig.6a): in % (unit assumed)
Procedure: 7. Metabolic stability assay. The metabolic profile of NHWD-870 was determined using mouse, rat, dog, monkey, and human liver microsomes using the protocols […]
No. Compound ID Exat Mass Stock Conc.
1) 100 mM potassium phosphate buffer, PH7.4; 2) 10mM MgCI2
1) Intermediate solution: Dilute 5 μL of compound or control from stock solution (10 mM) with 45 uL DMSO,then mixed with 450 μL 1:1 Methanol/Water (Conc.: 10 0 […]
2) Working solution: Dilute 50 μL from intermediate solution with 450 μL 100 mM potassium phosphate buffer (Conc.: 10 μM, 4.5%MeOH)
(3) NADPH regenerating system (final Isocitric dehydrogenase conc.= 1 unit/mL at […]
1) β-Nicotinamide adenine dinucleotide phosphate, Vendor: sigma Cat. No. N0505
2) Isocitric acid, Vendor: Sigma Cat. No. I1252
3) Isocitric dehydrogenase, Vendor: sigma Cat. No. I2002
(4) Liver microsome solution preparation (final concentration o f 0.5 mg protein/mL) […]
Cold ACN including 100 ng/mL Tolbutamide and 100 ng/mL Labetalol as internal […]
1) Add 10 μL compound or control working solution/well to all plates (T0, T5, T10, T20, T30, T60, NCF60) except matrix blank.
2) Dispense 680 μL/well microsome solution to 96-well plate as reserv oir according to […]
plate map. Then add 80 μL/well to every plate by Apricot, incubate the mixture of microsome solution and compound at 37℃ for about 10 min.
3) Add 10 μL 100 mM potassium phosphate buffer/well to NCF60, incubate at 37℃, […]
4) After pre-warming, dispense 90 μL/well NADPH regenerating system to 96-well plate as reservoir according to the plate map. Then add 10 μL/well to every plate by Apricot to start reaction.
5) Incubate at 37℃, start timer 2.
6) Add 300 (μL/well) stop solution (cold in 4℃, including 100 ng/mL Tolbutamide and 100 ng/mL Labetalol) to terminate the reaction.
7) The sampling plates are shaked for approx 10 min.
8) Samples are centrifuged at 4000 rpm for 20 min under 4℃.
9) While centrifuging, load 8×new 96-well plate with 300 μL HPLC water, then transfer 100 μL supernatant, mixed for LC/MS/MS.
Use equation of first order kinetics to calculate t1/2 and Clin t(mic): […]
Equation of first order kinetics: […]

[3] = system: TAMs; assay: Transwell co-culture of pretreated A2780 cells and TAMs with CSF1 or anti-CSF1R antibodies; type: cell-based, mouse; conditions: co-culture with pretreated A2780 cells, MCSF-1 10ng/ml where added
Procedure: Fig. 6 CSF1/CSF1R signaling is critical for the tumor inhibitory effects of NHWD-870 and CSF1 induced ovarian cancer growth depends on macrophages. a Number of TAMs after treatment with the indicated concentration of CSF1 for 48 h. Data are presented as mean ± SEM from three independent experiments. b–d Schematics of the experiments (b). A2780 cells (pre-treated with DMSO or 100 nM NHWD-870 for 48 h) were seeded into the top chamber (transwell size: 0.4 μm), and TAMs (Mac, 40,000 cells per 24-well) in medium with PBS or 10 ng/ml CSF1 (c), or 50 ng/ml IgG or anti-CSF1R antibodies (d), were seeded into the bottom chamber. Shown are quantification of TAMs (c, d). Data are presented as mean ± SEM from three independent experiments. e Representative western blot analysis of A2780 cells stably transfected with CSF1 or empty vector (EV). Selected from three independent experiments. f Schematics of the animal experiments using an orthotopic mouse OC model, established by intraperitoneally injecting 1 × 10^6 (g–j) or 2 × 10^6 (k–m) human A2780 cells overexpressing CSF1 or control into female recipient nude mice. Mice were then treated with/without liposomal clodronate (LC) for 45 days (g–j) or treated with/without NHWD-870 (PO, QD, 3 mg/kg) for 37 days (k–m). g Increased mouse body weight was measured at the indicated time points (day 0-45 after LC treatment). h–j Net tumor weight (h), ascitic fluid volumes (i) tumor implantations in peritoneum, omentum and pevic cavity (j) were measured at day 45 from LC treatment. k–m Net tumor weight (k), ascitic fluid volumes (l) tumor implantations in peritoneum, omentum and pevic cavity (m) were measured at day 37 after NHWD-870 treatment. For g–m, data are presented as mean ± SEM from five different mice. p values were calculated using two-tailed, unpaired t tests in this figure. n.s, not significant; *p < 0.05; **p < 0.01; and ***p < 0.001. Source data are provided as a Source Data file.
CD45^+CD11b^+F4/80^+ TAMs were isolated from peritoneal metastasis of A2780 tumor-bearing mice and cultured in RPMI-1640 supplemented with 10% FBS, 1% penicillin/streptomycin, and 0–50 ng/ml CSF1 (R&D Systems) as indicated according to standard protocols. In the cancer cell-macrophage co-culture experiments, CSF1 was not added. In the transwell (Corning, pore size, 0.4 μm) co-culture experiments, tumor cells were placed into the upper chamber, and TAMs were seeded into the lower chamber.

[4] = mouse, liver microsomes, pH 7.4

Structure (SMILES): Cc1nnn(C)c1-c1cnc2c3c4cnn(C)c4ccc3n([C@H](c3ccccc3)C3CCOCC3)c2c1 [NHWD-870]
- effect on growth of HaCAT cells ([1]; 24h, 48h or 72h): minimal effects
- Cell viability (Sup Fig.4a) ([1]; 24h, 8 nM, 0.008 µM): 96.6 and 101.8 and 89.4 and 88.3
- Cell viability (Sup Fig.4a) ([1]; 24h, 16 nM, 0.016 µM): 98.4 and 107.6 and 95.8
- Cell viability (Sup Fig.4a) ([1]; 24h, 32 nM, 0.032 µM): 83 and 93.4 and 105.5 and 99.6 and 95.5
- Cell viability (Sup Fig.4a) ([1]; 24h, 64 nM, 0.064 µM): 112.7 and 111.1 and 101.6 and 109.8
- Cell viability (Sup Fig.4a) ([1]; 24h, 250 nM, 0.25 µM): 109.5 and 106.5 and 97.6 and 108.3
- Cell viability (Sup Fig.4a) ([1]; 24h, 500 nM, 0.5 µM): 119.6 and 110.7 and 109.3 and 105
- Cell viability (Sup Fig.4a) ([1]; 24h, 1000 nM, 1 µM): 106.7 and 106.8 and 109.4 and 111.5
- Cell viability (Sup Fig.4b) ([1]; 8 nM, 0.008 µM): 89.1 and 94.5 and 96.5
- Cell viability (Sup Fig.4b) ([1]; 16 nM, 0.016 µM): 85.3 and 85.9 and 93.1 and 85.1
- Cell viability (Sup Fig.4b) ([1]; 32 nM, 0.032 µM): 88.3 and 88.2
- Cell viability (Sup Fig.4b) ([1]; 64 nM, 0.064 µM): 94.7 and 90.4 and 88.4
- Cell viability (Sup Fig.4b) ([1]; 250 nM, 0.25 µM): 97.7 and 92.7 and 91.5
- Cell viability (Sup Fig.4b) ([1]; 500 nM, 0.5 µM): 88 and 95 and 91.6 and 82.3
- Cell viability (Sup Fig.4b) ([1]; 1000 nM, 1 µM): 88.6 and 81.5 and 80.9 and 84.8
- Cell viability (Sup Fig.4b, 72h) ([1]; 8 nM, 0.008 µM): 90.9 and 86.4 and 92.1 and 95.1
- Cell viability (Sup Fig.4b, 72h) ([1]; 16 nM, 0.016 µM): 95.9 and 89.1 and 93.1
- Cell viability (Sup Fig.4b, 72h) ([1]; 32 nM, 0.032 µM): 88.4 and 97.6 and 92.8 and 90.1
- Cell viability (Sup Fig.4b, 72h) ([1]; 64 nM, 0.064 µM): 99.6 and 89.5 and 92.9
- Cell viability (Sup Fig.4b, 72h) ([1]; 250 nM, 0.25 µM): 93.7 and 89.8 and 88
- Cell viability (Sup Fig.4b, 72h) ([1]; 500 nM, 0.5 µM): 98.2 and 93.6 and 82.4 and 89.4
- Cell viability (Sup Fig.4b, 72h) ([1]; 1000 nM, 1 µM): 74 and 86.3 and 92.4
- Remaining (T=60min) ([2]; mouse liver microsomes): 36.2%
- Remaining (*NCF=60min) ([2]; mouse liver microsomes, no cofactor): 70.1%
- CLint scaled at 1 µM [2, 4]: 139 mL/min/kg
- half-life at 1 µM [2, 4]: 39.4 min
- microsomal CLint at 1 µM ([2]; mouse, microsomes, pH 7.4): 35.2 µL/min/mg
- Remaining in mouse liver microsomes (Sup Fig.6a) ([2]; time 0): 100
- Remaining in mouse liver microsomes (Sup Fig.6a) ([2]; time 5): 95.208
- Remaining in mouse liver microsomes (Sup Fig.6a) ([2]; time 10): 82.243
- Remaining in mouse liver microsomes (Sup Fig.6a) ([2]; time 20): 62.59
- Remaining in mouse liver microsomes (Sup Fig.6a) ([2]; time 30): 51.73
- Remaining in mouse liver microsomes (Sup Fig.6a) ([2]; time 60): 36.198
- Number of TAMs (Fig.6c) ([3]; time 0): 5
- Number of TAMs (Fig.6c) ([3]; time 24): 5.5 and 5.2 and 6.2
- Number of TAMs (Fig.6c) ([3]; time 48): 6.8 and 6.3 and 7.4
- Number of TAMs (Fig.6c) ([3]; time 72): 8.9 and 9.5 and 8.5
